# From PubChem BioAssay AID256 (DTP/NCI, 2004)
# Where “and” joins values, the source holds several entries; their conditions need not be identical. Equal entries are not always repeated. Inconclusive results and toxic doses are left out.
# Test system: CD2F1 mice, L1210 leukemia ip, survival T/C
# Assay: NCI In Vivo Anticancer Drug Screen. Data for tumor model L1210 Leukemia (intraperitoneal) in CD2F1 (CDF1) mice
# Conditions: endpoint: mean survival time, higher = longer survival
# In short: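 Tumor-bearing mice (transplanted tumor) were split into treated and vehicle control groups, and the measured endpoint of each treated group was divided by that of its vehicle controls.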
# [1] = dose: 25.0 mg/kg/injection, schedule: Q01DX009 (ip), vehicle: saline with Tween-80
# [2] = dose: 50.0 mg/kg/injection, schedule: Q01DX009 (ip), vehicle: saline with Tween-80
# [3] = dose: 100.0 mg/kg/injection, schedule: Q01DX009 (ip), vehicle: saline with Tween-80
# [4] = dose: 200.0 mg/kg/injection, schedule: Q01DX009 (ip), vehicle: saline with Tween-80
# [5] = dose: 400.0 mg/kg/injection, schedule: Q01DX009 (ip), vehicle: saline with Tween-80
# [6] = dose: 100.0 mg/kg/injection, schedule: Q01DX009 (ip), vehicle: Klucel (hydroxypropylcellulose) (HPC)
# [7] = dose: 50.0 mg/kg/injection, schedule: Q01DX009 (ip), vehicle: Klucel (hydroxypropylcellulose) (HPC)
# [8] = dose: 200.0 mg/kg/injection, schedule: Q01DX009 (ip), vehicle: Klucel (hydroxypropylcellulose) (HPC)
# [9] = dose: 100.0 mg/kg/injection, schedule: Q04DX003 (ip), vehicle: saline with Tween-80
# [10] = dose: 400.0 mg/kg/injection, schedule: Q01DX009 (ip), vehicle: Klucel (hydroxypropylcellulose) (HPC)
# [11] = dose: 200.0 mg/kg/injection, schedule: Q04DX003 (ip), vehicle: saline with Tween-80
# [12] = dose: 12.5 mg/kg/injection, schedule: Q04DX002 (ip), vehicle: saline with Tween-80
# [13] = dose: 400.0 mg/kg/injection, schedule: Q04DX003 (ip), vehicle: saline with Tween-80
smiles,measurement,setting,value
O/N=C\c1ccc2c(c1)OCCO2,T/C,"dose: 37.5 mg/kg/injection, schedule: Q01DX009 (ip), vehicle: saline",97 % of control
same,T/C,"dose: 75.0 mg/kg/injection, schedule: Q01DX009 (ip), vehicle: saline",103 % of control
same,T/C,"dose: 75.0 mg/kg/injection, schedule: Q04DX003 (ip), vehicle: saline",112 % of control
same,T/C,"dose: 150.0 mg/kg/injection, schedule: Q01DX009 (ip), vehicle: saline",100 % of control
same,T/C,"dose: 150.0 mg/kg/injection, schedule: Q04DX003 (ip), vehicle: saline",100 % of control
same,T/C,"dose: 300.0 mg/kg/injection, schedule: Q04DX003 (ip), vehicle: saline",100 % of control
COc1cc([N+](=O)[O-])ccc1P(=O)(O)O,T/C,"dose: 50.0 mg/kg/injection, schedule: Q04DX003 (ip), vehicle: saline",101 % of control
same,T/C,"dose: 100.0 mg/kg/injection, schedule: Q04DX003 (ip), vehicle: saline",97 % of control
same,T/C,"dose: 200.0 mg/kg/injection, schedule: Q04DX003 (ip), vehicle: saline",91 % of control
O=S(=O)(SC(Cl)(Cl)Cl)c1ccc(Cl)cc1,T/C,"dose: 12.5 mg/kg/injection, schedule: Q01DX009 (ip), vehicle: saline sonified",103 % of control
same,T/C,"dose: 25.0 mg/kg/injection, schedule: Q01DX009 (ip), vehicle: saline sonified",102 % of control
same,T/C,[1],103 % of control
same,T/C,"dose: 50.0 mg/kg/injection, schedule: Q01DX009 (ip), vehicle: saline sonified",102 % of control
same,T/C,[2],98 % of control
same,T/C,"dose: 100.0 mg/kg/injection, schedule: Q01DX001 (ip), vehicle: saline with Tween-80",91 % of control
same,T/C,[3],98 % of control
COC1CCC(/C(C#N)=C/C2CCC(N(C)C)CC2)CC1 (stereo not given),T/C,[3],89 % of control
same,T/C,[4],100 % of control
same,T/C,[5],96 % of control
CN(C)CC(N)C(=O)O (stereo not given),T/C,"dose: 50.0 mg/kg/injection, schedule: Q04DX002 (ip), vehicle: saline",89 % of control
same,T/C,"dose: 100.0 mg/kg/injection, schedule: Q04DX002 (ip), vehicle: saline",92 % of control
CN(C)N=Nc1cn[nH]c1C(N)=O,T/C,[6],172 % of control
CC1(C)OC(C(O)COC(=O)c2ccccc2)C(C(O)COC(=O)c2ccccc2)O1 (stereo not given),T/C,[7],98 % of control
same,T/C,[6],98 % of control
same,T/C,[8],102 % of control
Cc1c2cnccc2c(C)c2c1c1ccccc1n2CCCCCCNCc1ccccc1,T/C,"dose: 25.0 mg/kg/injection, schedule: Q04DX003 (ip), vehicle: saline with Tween-80",95 % of control
same,T/C,"dose: 50.0 mg/kg/injection, schedule: Q04DX003 (ip), vehicle: saline with Tween-80",89 % of control
same,T/C,[9],95 % of control
CCC(=O)OC1=CC(=O)c2ccccc2C1=O,T/C,"dose: 75.0 mg/kg/injection, schedule: Q01DX001 (ip), vehicle: saline",101 % of control
same,T/C,"dose: 150.0 mg/kg/injection, schedule: Q01DX001 (ip), vehicle: saline",105 % of control
CCCC(=O)Nc1ccc(O)cc1,T/C,[7],95 % of control
same,T/C,[6],91 % of control
same,T/C,[8],104 % of control
same,T/C,[10],123 % of control
Cc1ccc(S(=O)(=O)OC2CCC3C4CCC5=CC(=O)CCC5(C)C4CCC23C)cc1 (stereo not given),T/C,"dose: 75.0 mg/kg/injection, schedule: Q04DX003 (sc), vehicle: steriod suspending solution",98 % of control
same,T/C,"dose: 150.0 mg/kg/injection, schedule: Q04DX003 (sc), vehicle: steriod suspending solution",98 % of control
same,T/C,"dose: 300.0 mg/kg/injection, schedule: Q04DX003 (sc), vehicle: steriod suspending solution",98 % of control
Cc1c(Cl)cccc1NC(=O)Oc1ccc(Cl)cc1Cl,T/C,[9],95 % of control
same,T/C,[11],97 % of control
NNC(=O)Sc1ccccc1,T/C,"dose: 100.0 mg/kg/injection, schedule: Q01DX001 (ip), vehicle: saline",107 % of control
same,T/C,"dose: 200.0 mg/kg/injection, schedule: Q01DX001 (ip), vehicle: saline",111 % of control
same,T/C,"dose: 400.0 mg/kg/injection, schedule: Q01DX001 (ip), vehicle: saline",102 % of control
COc1ccc(C(=O)C(Br)Br)cc1OC,T/C,"dose: 3.13 mg/kg/injection, schedule: Q04DX002 (ip), vehicle: saline with Tween-80",112 % of control
same,T/C,"dose: 6.25 mg/kg/injection, schedule: Q04DX002 (ip), vehicle: saline with Tween-80",100 % of control
same,T/C,[12],100 % of control
CCCCCCCCCCC(CCCCCCCCCC)=NN=C(CCCCCCCCCC)CCCCCCCCCC,T/C,"dose: 100.0 mg/kg/injection, schedule: Q01DX001 (ip), vehicle: Klucel (hydroxypropylcellulose) (HPC)",90 % of control
same,T/C,"dose: 200.0 mg/kg/injection, schedule: Q01DX001 (ip), vehicle: Klucel (hydroxypropylcellulose) (HPC)",86 % of control
same,T/C,"dose: 400.0 mg/kg/injection, schedule: Q01DX001 (ip), vehicle: Klucel (hydroxypropylcellulose) (HPC)",90 % of control
CC1CCSCS1 (stereo not given),T/C,[12],97 % of control
same,T/C,"dose: 25.0 mg/kg/injection, schedule: Q04DX002 (ip), vehicle: saline with Tween-80",102 % of control
same,T/C,"dose: 50.0 mg/kg/injection, schedule: Q04DX002 (ip), vehicle: saline with Tween-80",102 % of control
Nc1ccc(SCCCc2c(N)nc(N)nc2N)cc1,T/C,"dose: 100.0 mg/kg/injection, schedule: Q01DX001 (ip), vehicle: other",100 % of control
same,T/C,"dose: 200.0 mg/kg/injection, schedule: Q01DX001 (ip), vehicle: other",96 % of control
O=C(O)C1=CCC=CC1,T/C,[3],104 % of control
same,T/C,[4],97 % of control
same,T/C,[5],106 % of control
NNc1ccnc2[nH]ncc12,T/C,"dose: 6.25 mg/kg/injection, schedule: Q01DX005 (ip), vehicle: saline with Tween-80",106 % of control
same,T/C,"dose: 12.5 mg/kg/injection, schedule: Q01DX005 (ip), vehicle: saline with Tween-80",103 % of control
same,T/C,"dose: 25.0 mg/kg/injection, schedule: Q01DX005 (ip), vehicle: saline with Tween-80",101 % of control
CCN(CC)CCOC(=O)c1ccc(NC(=O)COc2ccc3ccccc3c2)cc1,T/C,"dose: 12.5 mg/kg/injection, schedule: Q01DX009 (ip), vehicle: other",98 % of control and 97 % of control
same,T/C,"dose: 25.0 mg/kg/injection, schedule: Q01DX009 (ip), vehicle: other",97 % of control
same,T/C,"dose: 50.0 mg/kg/injection, schedule: Q01DX009 (ip), vehicle: other",98 % of control and 93 % of control
same,T/C,"dose: 100.0 mg/kg/injection, schedule: Q01DX009 (ip), vehicle: other",94 % of control and 93 % of control
same,T/C,"dose: 200.0 mg/kg/injection, schedule: Q01DX009 (ip), vehicle: other",97 % of control and 93 % of control
COc1cccc(C#Cc2ccccc2NC(C)=O)c1,T/C,[3],91 % of control
same,T/C,[4],86 % of control
same,T/C,[5],94 % of control
CN1CCC(COC(=O)C(O)(c2ccccc2)c2ccccc2)C1 (stereo not given),T/C,[1],100 % of control
same,T/C,[2],100 % of control
same,T/C,[3],94 % of control
CCC(C)C(C(=O)O)c1ccccc1 (stereo not given),T/C,[3],104 % of control
same,T/C,[4],101 % of control
same,T/C,[5],98 % of control
OCC#CC1CCCCC1,T/C,[2],107 % of control
same,T/C,[3],107 % of control
same,T/C,[4],101 % of control
N#CC(CC(=O)c1ccc(Br)cc1)c1ccccc1 (stereo not given),T/C,[9],95 % of control
same,T/C,[11],91 % of control
same,T/C,[13],95 % of control
[Cl][Pt+2][Cl].[NH-]c1cccc(I)c1.[NH-]c1cccc(I)c1,T/C,"dose: 3.12 mg/kg/injection, schedule: Q04DX003 (ip), vehicle: distilled water + Tween-80",103 % of control
same,T/C,"dose: 6.25 mg/kg/injection, schedule: Q04DX003 (ip), vehicle: distilled water + Tween-80",110 % of control
same,T/C,"dose: 12.5 mg/kg/injection, schedule: Q04DX003 (ip), vehicle: distilled water + Tween-80",108 % of control
same,T/C,"dose: 25.0 mg/kg/injection, schedule: Q04DX003 (ip), vehicle: distilled water + Tween-80",106 % of control
same,T/C,"dose: 50.0 mg/kg/injection, schedule: Q04DX003 (ip), vehicle: distilled water + Tween-80",112 % of control
same,T/C,"dose: 100.0 mg/kg/injection, schedule: Q04DX003 (ip), vehicle: distilled water + Tween-80",112 % of control
CN(C)c1ccc(/C=C/c2ccc3ccccc3n2)c(F)c1,T/C,[6],100 % of control
same,T/C,[8],98 % of control
same,T/C,[10],89 % of control
CCC1CCCCN1C (stereo not given),T/C,[9],90 % of control
Cc1cc(C)c(C(=O)c2ccc(-c3ccccc3)cc2)c(C)c1,T/C,[3],95 % of control
same,T/C,[9],98 % of control
same,T/C,[4],98 % of control
same,T/C,[11],106 % of control
same,T/C,[5],91 % of control
same,T/C,[13],98 % of control
